Assay results as given in the OligoGym collection.
“And” between values parts separate entries of the source, which are not always exact repeats. Identical values can stand only once. After the bases stand the sugars from the 5' end (letter, count) and the backbone: PS all phosphorothioate, else s phosphorothioate and o phosphodiester by linkage. Methylation of C is not given here. [mop] = methoxypropylphosphonate linkage; e = 2'-O-(2-methoxyethyl) (MOE); k = constrained ethyl (cEt); d = 2'-deoxy (DNA); m = 2'-O-methyl

Target: IRF5
Settings: ASO

Row | Sequence | target mRNA inhibition (KARPAS-229, 4 µM) | also measured
1 | GTGAGTCTCAAACCAG (sugars kkkdddddddddkeke, PS) | 0% | 
2 | AGGAAGTGAGTCTCAA (sugars kdddddddddkekeke, PS) | 23% | 
3 | GGTTCTTGGACTCTCA (sugars kkkddddddddkekek, PS) | 25% | 
4 | AGATGGTGTTATCTCC (sugars kkkdddddddddkeke, PS) | 8% | 
5 | TCACCACTGTGTACCC (sugars k2 d8 e4 k2, PS) | 0% | 
6 | CCCAATGCAACATCCA (sugars kddddddddddkekek, PS) | 0% | 
7 | CCATTCTATGCCTTTT (sugars k2 d9 e3 k2, PS) | 50% | 
8 | GGAAGTGAGTCTCAAA (sugars k2 d8 e4 k2, PS) | 34% | 
9 | TGTCTAGTGTCATGGA (sugars k3 d10 k3, PS) | 61% and 65% | target mRNA inhibition (KARPAS-229, 0.44444 µM): 0%; target mRNA inhibition (KARPAS-229, 1.33333 µM): 42%; target mRNA inhibition (KARPAS-229, 12 µM): 74%
10 | GGTCTTGACCTCCCGC (sugars kkddddddddkekekk, PS) | 44% | 
11 | TATTTCTGCTCCAGGT (sugars kkddddddddkekekk, PS) | 0% | 
12 | CTTGTCTAGTGTCATG (sugars k3 d10 k3, PS) | 58% | 
13 | TGAGTAGGACGAGTTA (sugars k3 d10 k3, PS) | 18% | 
14 | ATGAGTAATAGGAGTG (sugars k3 d10 k3, PS) | 56% and 52% | target mRNA inhibition (KARPAS-229, 0.44444 µM): 15%; target mRNA inhibition (KARPAS-229, 1.33333 µM): 46%; target mRNA inhibition (KARPAS-229, 12 µM): 70%
15 | GAGTCTCAAACCAGGG (sugars kkddddddddkekekk, PS) | 0% | 
16 | ATACCCAATGCAACAT (sugars k3 d10 k3, PS) | 1% | 
17 | GTTATCTCCGTTCCTGG (sugars kkkddddddddkdkdkd, PS) | 27% | 
18 | CCAATTTTGCATTCCA (sugars kkdddddddddkdkdk, PS) | 42% | 
19 | AGGTTCTTGGACTCTC (sugars kdddddddddkekeke, PS) | 0% | 
20 | GATGGTGTTATCTCCG (sugars kkddddddddkekekk, PS) | 0% | 
21 | GTGAGTCTCAAACCAG (sugars kkddddddddkekekk, PS) | 9% | 
22 | TGAGTCATGGGCTGAG (sugars k2 d8 e4 k2, PS) | 15% | 
23 | CACTGACACAGGCGGA (sugars kkkdddddddddkeke, PS) | 0% | 

Row | Sequence | target mRNA inhibition (KARPAS-229, 4 µM) | also measured
24 | TGAGTCTCAAACCAGG (sugars kkdddddddddkekek, PS) | 0% | 
25 | CAATGCAACATCCATC (sugars kddddddddddkekek, PS) | 0% | 
26 | TGCAGGGAGTCAGACC (sugars k3 d10 k3, PS) | 0% | 
27 | TAAGGGCACAGCGCAG (sugars k3 d10 k3, PS) | 0% | 
28 | TGCACTGACACAGGCG (sugars kkkddddddddkekek, PS) | 0% | 
29 | AGTAGGACGAGTTATG (sugars k3 d10 k3, PS) | 0% | 
30 | GTCTGGCCCTTTTGGA (sugars kkddddddddddkeke, PS) | 0% | 
31 | TGTCTAGTGTCATGGA (sugars kkdddddddddkekek, PS) | 44% | 
32 | TTATCTCCGTCCTGGC (sugars k2 d9 e3 k2, PS) | 5% | 
33 | TGAGTCATGGGCTGAG (sugars kekdddddddddeekk, PS) | 12% | 
34 | CTTCTGCAGGGAGTCA (sugars kkddddddddkekekk, PS) | 0% | 
35 | ATCTGATATGATACCT (sugars k3 d10 k3, PS) | 36% | 
36 | AGATGGTGTTATCTCC (sugars kkddddddddddkeke, PS) | 0% | 
37 | CCATTCTATGCCTTTT (sugars k2 d8 e4 k2, PS) | 17% | 
38 | GACTGTATTACCTATA (sugars k3 d10 k3, PS) | 41% | 
39 | TCTAGTGTCATGGAAT (sugars k3 d10 k3, PS) | 14% | 
40 | TGTCACATCTCCACAT (sugars kkddddddddkekekk, PS) | 0% | 
41 | GTGTATTTCCCTGTCT (sugars kkdddddddddkekek, PS) | 0% | 
42 | TGTCTAGTGTCATGGA (sugars k2 d9 e3 k2, linkages s4 [mop]1 s10) |  | target mRNA inhibition (A-431, 0.00412 µM): 2%; target mRNA inhibition (A-431, 0.01225 µM): 11%; target mRNA inhibition (A-431, 0.03704 µM): 4%; target mRNA inhibition (A-431, 0.11111 µM): 8%; target mRNA inhibition (A-431, 0.33333 µM): 18%; target mRNA inhibition (A-431, 1 µM): 32%
43 | TGAGTCTCAAACCAGG (sugars kkkddddddddkekek, PS) | 0% | 
44 | TCTGATATGATACCTA (sugars k3 d10 k3, linkages s4 [mop]1 s10) |  | target mRNA inhibition (A-431, 0.00412 µM): 10%; target mRNA inhibition (A-431, 0.01225 µM): 14%; target mRNA inhibition (A-431, 0.03704 µM): 43%; target mRNA inhibition (A-431, 0.11111 µM): 66%; target mRNA inhibition (A-431, 0.33333 µM): 80%; target mRNA inhibition (A-431, 1 µM): 87%
45 | ACCATTCTATGCCTTT (sugars kekdddddddddeekk, PS) | 51% | 
46 | AGTGAGACGAGCAAAG (sugars k3 d10 k3, PS) | 16% | 

Row | Sequence | target mRNA inhibition (KARPAS-229, 4 µM) | also measured
47 | CATTCTATGCCTTTTA (sugars k3 d10 k3, PS) | 24% | 
48 | CAGGGAGTCAGACCTA (sugars k3 d10 k3, PS) | 0% | 
49 | AGATGGTGTTATCTCC (sugars kkkddddddddkdkdk, PS) | 0% | 
50 | GCAAAGGGTGAGTAGG (sugars k3 d10 k3, PS) | 24% | 
51 | ACCACTGTGTACCCCA (sugars k3 d9 k3 e1, PS) | 47% | 
52 | CCAATTTTGCATTCCA (sugars kkddddddddkekekk, PS) | 39% | 
53 | TCCAATTTTGCATTCC (sugars kkkddddddddkekek, PS) | 51% | 
54 | CACATCTCCACATCAG (sugars kkddddddddkekekk, PS) | 17% | 
55 | TGAGTCATGGGCTGAG (sugars kddddddddkekekdd, PS) | 0% | 
56 | CGGTGTATTTCCCTGT (sugars k3 d10 k3, PS) | 0% | 
57 | AAGGGCACAGACGCAGG (sugars k3 d10 k3 d1, PS) | 0% | 
58 | ACATCTCCACATCAGT (sugars kkdddddddddkekek, PS) | 16% | 
59 | CGGTCTTTGAGGTCTG (sugars kkkddddddddkekek, PS) | 56% | 
60 | TGACTGTATTACCTAT (sugars k3 d10 k3, PS) | 18% | 
61 | GGTCTTTGAGGTCTGG (sugars kkdddddddddkekek, PS) | 54% | 
62 | AGGTTCTTGGACTCTC (sugars k3 d10 k3, PS) | 0% | 
63 | AAGGGCACAGCGCAGG (sugars kddddddddddkekek, PS) | 0% | 
64 | CTTCTGCAGGGAGTCA (sugars k2 d8 e4 k2, PS) | 0% | 
65 | GTCATGGAATTTTGTG (sugars k3 d10 k3, PS) | 54% | 
66 | GGTCTTTGAGGTCTGG (sugars kkkddddddddkekek, PS) | 46% | 
67 | TGAGTCATGGGCTGAG (sugars kkkddddddddkekek, PS) | 0% | 
68 | CCCAATGCAACATCCA (sugars k3 d9 k3 e1, PS) | 0% | 
69 | TGTCTAGTGTCATGGA (sugars k2 d9 e3 k2, PS) | 60% and 57% | target mRNA inhibition (A-431, 0.00412 µM): 0% and 4%; target mRNA inhibition (A-431, 0.01225 µM): 0% and 2%; target mRNA inhibition (A-431, 0.03704 µM): 24% and 28%; target mRNA inhibition (A-431, 0.11111 µM): 44%; target mRNA inhibition (A-431, 0.33333 µM): 59% and 60%; target mRNA inhibition (A-431, 1 µM): 69% and 74%; target mRNA inhibition (KARPAS-229, 0.44444 µM): 33%; target mRNA inhibition (KARPAS-229, 1.33333 µM): 50%; target mRNA inhibition (KARPAS-229, 12 µM): 70%

Row | Sequence | target mRNA inhibition (KARPAS-229, 4 µM) | also measured
70 | GCACTGACACAGGCGG (sugars kddddddddddkekek, PS) | 0% | 
71 | TCTGATATGATACCTA (sugars k3 d10 k3, linkages s5 [mop]1 s9) |  | target mRNA inhibition (A-431, 0.00412 µM): 10%; target mRNA inhibition (A-431, 0.01225 µM): 6%; target mRNA inhibition (A-431, 0.03704 µM): 38%; target mRNA inhibition (A-431, 0.11111 µM): 56%; target mRNA inhibition (A-431, 0.33333 µM): 71%; target mRNA inhibition (A-431, 1 µM): 77%
72 | CTGAUATGATACCTAA (sugars k3 d1 m1 d8 k3, PS) |  | target mRNA inhibition (A-431, 0.00412 µM): 6%; target mRNA inhibition (A-431, 0.01225 µM): 23%; target mRNA inhibition (A-431, 0.03704 µM): 41%; target mRNA inhibition (A-431, 0.11111 µM): 64%; target mRNA inhibition (A-431, 0.33333 µM): 82%; target mRNA inhibition (A-431, 1 µM): 82%
73 | TCTGGCCCTTTTGGAA (sugars kddddddddddkekek, PS) | 0% | 
74 | GTTATCTCCGTCCTGG (sugars k3 d9 k3 e1, PS) | 33% | 
75 | ACTGACACAGGCGGAT (sugars kkkddddddddkekek, PS) | 0% | 
76 | CAGGTTCTTGGACTCT (sugars kkddddddddddkeke, PS) | 28% | 
77 | CACATCTCCACATCAG (sugars kkkddddddddkekek, PS) | 43% | 
78 | GCATTCCATATACACA (sugars kkdddddddddkekek, PS) | 2% | 
79 | TTGTCTAGTGTCATGG (sugars kkkddddddddkekek, PS) | 16% | 
80 | CTCTAAACCATTCTAT (sugars k3 d10 k3, PS) | 0% | 
81 | AGGTTCTTGGACTCTC (sugars kkkddddddddkekek, PS) | 8% | 
82 | GGTGTATTTCCCTGTC (sugars kkkdddddddddkeke, PS) | 0% | 
83 | AGGTTCTTGGACTCTC (sugars kkdddddddddkdkdk, PS) | 36% | 
84 | GTGTATTTCCCTGTCT (sugars kkkddddddddkekek, PS) | 0% | 
85 | GCATTCCATATACACA (sugars kkkddddddddkekek, PS) | 0% | 
86 | ATGCAACATCCATCAA (sugars k3 d10 k3, PS) | 0% | 
87 | GTCTAGTGTCATGGAA (sugars k3 d10 k3, PS) | 38% | 
88 | ATGAGTCATGGGCTGA (sugars kkkddddddddkekek, PS) | 0% | 
89 | ACCATTCTATGCCTTT (sugars k3 d9 k3 e1, PS) | 59% and 61% | target mRNA inhibition (KARPAS-229, 0.44444 µM): 33%; target mRNA inhibition (KARPAS-229, 1.33333 µM): 56%; target mRNA inhibition (KARPAS-229, 12 µM): 75%
